From patent publication US8193157B2, “Antiviral therapies” (priority 2005, dated 2012)
Values after ≈ are worked out from the molar mass of the structure shown. Read-outs that look alike come from different tables or passages of the source. Marks after values point to notes of the source that are not given here.

B1: UDA: GlcNAc-specific plant lectin from Urtica dioica (stinging nettle) (protein, UniProt P11218 24-372, looked up)
Lectin/endochitinase 1: QRCGSQGGGGTCPALWCCSIWGWCGDSEPYCGRTCENKCWSGERSDHRCGAAVGNPPCGQDRCCSVHGWCGGGNDYCSGSKCQYRCSSSVRGPRVALSGNSTANSIGNVVVTEPLFDQMFSHRKDCPSQGFYSYHSFLVAAESFPAFGTIGDVATRKREVAAFLAHISQATSGERSDVENPHAWGLCHINTTTVTENDFCTSSDWPCAAGKKYSPRGPIQLTHNFNYGLAGQAIGEDLIQNPDLVEKDPIISFKTALWFWMSQHDNKPSCHDIVLNANSAANRIPNKGVIGNIISRAFGHDDFAVRSSSIGFYKRYCDMLGVSYGHDLKYWFDNTPSSEFQRIQMRVAA

Key:
Influenza A H1N1 = format: cell-based
Influenza A H3N2 = format: cell-based
[1] = system: AB-resistant HIV-1 (N44.3), glycan deletions N461P and N635K; experiment: Anti-HIV activity against AB-resistant HIV-1 strain in CEM cells; format: cell-based; conditions: AB-resistant virus strain (N461P, N635K)
HUT-78/HIV + Sup T-1 = experiment: Giant cell formation in a co-cultivation assay HUT-78/HIV + Sup T-1; format: cell-based
HIV-1 (NL4.3) = experiment: Anti-HIV activity of Alcian Blue against HIV-1 (NL4.3) in CEM cells
Experimental: Compounds were tested against HIV-1 strains (HE, NL43, MN, IIIB), HIV-2 strains (ROD, EHO, RF), and SIV (MAC251) for inhibition of virus-induced cytopathicity in MT-4 cells (or CEM or C8166 or Molt4/C8 cells), using the colorimetric test described by Pauwels et al. in J. Virol. […] For example microtiter 96-well plates containing ˜3×10^5 CEM cells/ml, infected with 100 CClD50 of HIV per ml and containing appropriate dilutions of the test compounds were used.
A rapid and automated assay procedure was used for the in vitro evaluation of anti-HIV agents. An HTLV-1 transformed T4-cell line MT-4, which was previously shown to be highly susceptible to and permissive for HIV infection, can serve as the target cell line. Inhibition of the HIV-induced cytopathogenic effect was used as the end point. The viability of both HIV- and mock-infected cells was also assessed spectrophotometrically via in situ reduction of 3(4,5-dimethylthiazol-2-yl)-2,5-diphenyltetrazolium bromide (MTT). Methods comprise for example the microscopic examination of CEM, C8166 or Molt4/C8 giant (syncytium) cell formation, after 4 to 5 days of incubation at 37° C. in a CO2-controlled humidified atmosphere. […] The percent protection achieved by the compound in HIV-infected cells is calculated by the following formula:

HCVpp (1a) = experiment: HCV pseudoparticle HCVpp (1a) entry into Huh7 cells, luciferase activity; format: cell-based; conditions: for EC50: Huh7 cells, luciferase activity, mean ±SD
From the text: (§1) Production of pseudoparticles (HCVpp) and cell culture infection. To produce HCVpp, 293T cells (1.2×10^6) were lipofected at a 1:2 ratio of a NLluc^+env^− reporter vector and a vector expressing the HCV envelope glycoproteins as previously described (Bertaux and Dragic, 2006). HCV envelope glycoprotein-encoding sequences corresponding to subtypes 1b and 2b were PCR-amplified from patient sera starting from the last 60 amino acids in the Core to the end of glycoprotein E2. Supernatants were collected 48 hours post lipofection, filtered (0.45μ) and stored at −80° C. until further use. HCVpp were tested by infection of Huh7 cells (5×10^4) and measuring luciferase activity (relative light units, RLU) 48 hours post infection using the Luciferase assay system according to the manufacturer's instructions.
(§2) To measure inhibition of HCVpp (1a,1b,2b) entry into Huh7 cells by CBA and polyanions, an essentially similar procedure has been used as described above for infectious HCVcc (2a).
(§3) In order to reveal whether CBA also act at the level of HCV entry, we evaluated their ability to inhibit entry of pseudoparticles comprising the HCV envelope glycoproteins E1 and E2 into Huh-7 cells.

Influenza B = format: cell-based; conditions: MDCK cell cultures
HIV-2 (strain ROD) = experiment: Anti-HIV assay, inhibition of HIV-2(ROD)-induced cytopathicity in CEM cells; format: cell-based; conditions: virus-induced cytopathicity, mean ±SD
HCVpp (1b) = experiment: HCV pseudoparticle HCVpp (1b) entry into Huh7 cells, luciferase activity; format: cell-based; conditions: mean ±SD
From the text: as §1, §2, §3

HCVcc (subtype 2a) = experiment: Infectious HCVcc (subtype 2a) infection of Huh7 cells, luciferase activity; format: cell-based, HCV
Experimental: Huh7 cells (2×10^4) were plated and 24 hours later infected with supernatants containing infectious HCVcc pre-mixed with serial dilutions of lectins or polyanions. Mannan (2.5 mg/ml; Sigma) was added to some of the mixtures prior to Huh7 infection. After 24 hours post infection, the mixture of virus and test compounds was replaced by fresh medium, cells were brought at 37° C. and luciferase activity was measured in the cell lysates 24 hours later.
The inhibitory activities of carbohydrate binding small molecules and agents against infectious HIV-1 (strain IIIB), HIV-2 (strain ROD) and HCVcc (subtype 2a) were evaluated in human T lymphocyte cells (CEM) and human hepatocellular carcinoma cells (Huh-7), respectively (Table 1). […] The effect of mannan on the antiviral activity of the CBA was investigated.

[2] = system: HIV-1(IIIB) capture by Raji/DC-SIGN cells; experiment: Inhibition of HIV-1 capture by Raji/DC-SIGN cells (p24 Ag); format: cell-based; conditions: HIV-1 exposed 30 min to compound before addition to cells
Experimental: Inhibition of HIV-1 capture by Raji/DC-SIGN cells. HIV-1 particles (2.2 μg p24/ml) were exposed to serial dilutions of the test compounds (400 μl) for 30 min. Then, the drug-exposed virus suspensions (500 μl) were mixed with Raji/DC-SIGN cell suspensions (500 μl; 10^6 cells) for 60 min at 37° C. after which the cells were thoroughly washed twice with 40 ml culture medium as described above. […] The Raji/DC-SIGN cell cultures were then analysed for HIV-1 p24 Ag content.
Raji B-lymphocyte cells were modified to express DC-SIGN at their cell surface (Geijtenbeek et al., 2000; Wu et al., 2004). When Raji/DC-SIGN cells were exposed to cell-free HIV-1(IIIB) particles, they were able to efficiently capture the virus particles as evidenced by retention of p24 antigen of HIV-1 on the Raji/DC-SIGN cells (˜1200 pg p24). […] The CBA could prevent >90% of HIV-1 capture at concentrations >2 μM for GNA, HHA and CA; >10 μM for UDA and >60 μM for PRM-A.

HIV-1 (strain IIIB) = format: cell-based; conditions: for EC50: CEM cells
VSVpp = format: cell-based, VSV; conditions: read-out: EC50 VSVpp (C8166)
HCVpp (2b) = experiment: HCV pseudoparticle HCVpp (2b) entry into Huh7 cells, luciferase activity; format: cell-based; conditions: mean ±SD
From the text: as §1, §2, §3

[3] = in the presence of mannan 2.5 mg/ml, read-out: HCV(2a) EC50 +Mannan (2.5 mg/ml)
[4] = luciferase activity, mean ±SD, read-out: EC50 HCV (2a) (Huh7)
[5] = without mannan (Table 3), read-out: HCV(2a) EC50 As such
[6] = in the presence of mannan 2.5 mg/ml, read-out: HIV-1 EC50 +Mannan (2.5 mg/ml)
[7] = virus-induced cytopathicity, mean ±SD, read-out: EC50 HIV-1(IIIB) (CEM)
[8] = without mannan (Table 3), read-out: HIV-1 EC50 As such

| Molecule | EC50 Influenza A H1N1 (Influenza A H1N1) | EC50 Influenza A H3N2 (Influenza A H3N2) | EC50 HIV-1R (N44.3) (CEM) [1] | EC50 HUT-78/HIV + Sup T-1 (HUT-78/HIV + Sup T-1) | EC50 HIV-1 (NL4.3) (CEM) (HIV-1 (NL4.3)) | EC50 HCVpp (1a) (HCVpp (1a); Alcian Blue table) | EC50 Influenza B (Influenza B) | EC50 (HIV-2 (strain ROD)) | EC50 (HCVpp (1b)) | EC50 (HCVcc (subtype 2a); [3]) | EC50 (HCVcc (subtype 2a); [4]) | EC50 (HCVcc (subtype 2a); [5]) | concentration preventing >90% of HIV-1 capture by Raji/DC-SIGN cells [2] | EC50 (HIV-1 (strain IIIB); [6]) | EC50 (HIV-1 (strain IIIB); [7]) | EC50 (HIV-1 (strain IIIB); [8]) | EC50 (HCVpp (1a)) | EC50 (VSVpp) | EC50 (HCVpp (2b)) | decrease of antiviral activity against HIV-1 in the presence of mannan (HIV-1 (strain IIIB); mannan) |
| --- | --- | --- | --- | --- | --- | --- | --- | --- | --- | --- | --- | --- | --- | --- | --- | --- | --- | --- | --- | --- |
| Alcian Blue | >20 µg/mL | >20 µg/mL | >50 µg/mL | 4.5 ± 1.5^c μg/ml | 5 ± 1 µg/mL | 30^d μg/ml | >20 µg/mL |  |  |  |  |  |  |  |  |  |  |  |  |  |
| CN[C@@H]1[C@H](O[C@@H]2OC[C@@H](O)[C@H](O)[C@H]2O)[C@@H](O)[C@H](O[C@H]2c3cc(C)c(C(=O)N[C@H](C)C(=O)O)c(O)c3-c3c(cc4c(c3O)C(=O)c3cc(OC)cc(O)c3C4=O)[C@@H]2O)O[C@@H]1C [PRM-A, pradimicin A, reference compound] | 1.9 µg/mL (≈ 2.26 µM) | 1.6 µg/mL (≈ 1.9 µM) |  |  |  |  | 2.4 µg/mL (≈ 2.85 µM) | 1800 nM | 1670 ± 60 nM | > 30000 nM | 3610 ± 780 nM | 3610 ± 780 nM | > 60 µM | 40000 ± 13000 nM | 3360 ± 1200 nM | 5300 ± 780 nM | 1170 ± 310 nM | > 60 µM | 924 ± 156 nM |  |
| B1 | 4.1 µg/mL | 0.99 µg/mL |  |  |  |  |  | 391 ± 106 nM | 19 ± 22 nM | 560 ± 108 nM | 176 ± 29 nM | 176 ± 29 nM | > 10 µM | 459 nM | 140 ± 40 nM | 149 ± 40 nM | 32 ± 15 nM | > 11 µM | 50 ± 54 nM | 3 fold |
